In the supplement of paper PMC11451515:

How the values were obtained:
Details in all cases: 48 h
[1] = tested on: NOMO1; experiment: cell viability relative to DMSO control; higher = less cytotoxic
Method in brief: (§1)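 Leukemia cells (NOMO1 or SEM, 500 cells/well; P12-Ichikawa, 1000 cells/well) were seeded in 5 μl in 1536-well plates after at least four passages of adaptation to each medium. They received library compounds in DMSO by pin dosing, 11 threefold points from 47 μM to 0.79 nM. Luminescence with CellTiter-Glo One was read after 48 h at 37°C. Viability is stated per plate relative to DMSO wells, with cell-free wells as background.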

[2] = tested on: P12-Ichikawa; experiment: as above
Method in brief: as §1

[3] = tested on: SEM cells; experiment: as above
Method in brief: as §1

[4] = tested on: NOMO1; experiment: AUC of viability dose-response curve (% viability x log10 dose units); higher = less sensitive
Method in brief: (§2)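 Viability of medium-adapted leukemia cells was measured by CellTiter-Glo One luminescence after 48 h at 37°C with library compounds in DMSO. Doses were 11 threefold steps from 47 μM to 0.79 nM, in 1536-well plates at 500 or 1000 cells/well. Signals were normalised per plate to DMSO and cell-free wells and fitted with a four-parameter log-logistic model on log10 dose. Area under the curve was integrated by trapezoidal rule, with curves exceeding full viability scaled and failed quality-control curves removed.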

[5] = tested on: P12-Ichikawa; experiment: as above
Method in brief: as §2

CC1=C2N=C([NH]C2=CC(=C1)N3CCOCC3)\C4=C(NC[C@@H](O)C5=CC=CC(=C5)Cl)\C=C/NC4=O
cell viability [%]
Details | [1] | [2] | [3]
HPLM + 10% dialyzed FBS, 0.000781 µM | 86.2 | 102 | 77.8
HPLM + 10% dialyzed FBS, 0.00234 µM | 100 | 104 | 95.7
HPLM + 10% dialyzed FBS, 0.00702 µM | 105 | 103 | 91.4
HPLM + 10% dialyzed FBS, 0.0211 µM | 99.8 | 109 | 91.2
HPLM + 10% dialyzed FBS, 0.0632 µM | 98.4 | 113 | 82.8
HPLM + 10% dialyzed FBS, 0.19 µM | 92.8 | 110 | 75.8
HPLM + 10% dialyzed FBS, 0.569 µM | 79.3 | 112 | 61.3
HPLM + 10% dialyzed FBS, 1.71 µM | 65.4 | 115 | 52.5
HPLM + 10% dialyzed FBS, 5.12 µM | 61.2 | 106 | 26.9
HPLM + 10% dialyzed FBS, 15.4 µM | 44.2 | 100 | 19.4
HPLM + 10% dialyzed FBS, 46.1 µM | 44.7 | 90.8 | 15.4
RPMI 5 mM glucose + 10% FBS, 0.000781 µM | 104 | 104 | 81.3
RPMI 5 mM glucose + 10% FBS, 0.00234 µM | 103 | 108 | 105
RPMI 5 mM glucose + 10% FBS, 0.00702 µM | 109 | 106 | 122
RPMI 5 mM glucose + 10% FBS, 0.0211 µM | 99.1 | 109 | 115
RPMI 5 mM glucose + 10% FBS, 0.0632 µM | 95.7 | 115 | 94.1
RPMI 5 mM glucose + 10% FBS, 0.19 µM | 108 | 114 | 95.6
RPMI 5 mM glucose + 10% FBS, 0.569 µM | 89.8 | 119 | 83.7
RPMI 5 mM glucose + 10% FBS, 1.71 µM | 73.7 | 117 | 56.2
RPMI 5 mM glucose + 10% FBS, 5.12 µM | 68.9 | 117 | 26.6
RPMI 5 mM glucose + 10% FBS, 15.4 µM | 65.3 | 106 | 14.2
RPMI 5 mM glucose + 10% FBS, 46.1 µM | 57.4 | 85.6 | 8.45
RPMI 5 mM glucose + 10% dialyzed FBS, 0.000781 µM | 99.6 | 101 | 70.7
RPMI 5 mM glucose + 10% dialyzed FBS, 0.00234 µM | 101 | 117 | 90.3
RPMI 5 mM glucose + 10% dialyzed FBS, 0.00702 µM | 90.4 | 120 | 84.6
RPMI 5 mM glucose + 10% dialyzed FBS, 0.0211 µM | 91.9 | 118 | 80.1
RPMI 5 mM glucose + 10% dialyzed FBS, 0.0632 µM | 96 | 116 | 67.9
RPMI 5 mM glucose + 10% dialyzed FBS, 0.19 µM | 87.6 | 119 | 75.1
RPMI 5 mM glucose + 10% dialyzed FBS, 0.569 µM | 72.8 | 120 | 66.8
RPMI 5 mM glucose + 10% dialyzed FBS, 1.71 µM | 67.1 | 128 | 46.7
RPMI 5 mM glucose + 10% dialyzed FBS, 5.12 µM | 53.6 | 110 | 21.1
RPMI 5 mM glucose + 10% dialyzed FBS, 15.4 µM | 57.2 | 105 | 13.7
RPMI 5 mM glucose + 10% dialyzed FBS, 46.1 µM | 49.1 | 85.7 | 7.96

AUC of viability dose-response curve
Details | HPLM + 10% dialyzed FBS | RPMI 5 mM glucose + 10% FBS | RPMI 5 mM glucose + 10% dialyzed FBS
[4] | 385 | 411 | 378
[5] | 469 | 469 | 465

C[Se]CCC(N)C(=O)O (stereo not given)
cell viability [%]
Details | [1] | [2] | [3]
HPLM + 10% dialyzed FBS, 0.000781 µM | 90.1 | 88.7 | 50.5
HPLM + 10% dialyzed FBS, 0.00234 µM | 90.2 | 86.3 | 87.2
HPLM + 10% dialyzed FBS, 0.00702 µM | 85.7 | 89.6 | 86.1
HPLM + 10% dialyzed FBS, 0.0211 µM | 95.7 | 84.9 | 94.7
HPLM + 10% dialyzed FBS, 0.0632 µM | 99.3 | 88.4 | 75.6
HPLM + 10% dialyzed FBS, 0.19 µM | 93 | 85.1 | 71.3
HPLM + 10% dialyzed FBS, 0.569 µM | 93.1 | 87.4 | 82.8
HPLM + 10% dialyzed FBS, 1.71 µM | 59.1 | 88.7 | 71.5
HPLM + 10% dialyzed FBS, 5.12 µM | 83.5 | 78.8 | 86.4
HPLM + 10% dialyzed FBS, 15.4 µM | 69 | 78.8 | 78.1
HPLM + 10% dialyzed FBS, 46.1 µM | 73.7 | 78.6 | 72
RPMI 5 mM glucose + 10% FBS, 0.000781 µM | 79.9 | 77.1 | 65.1
RPMI 5 mM glucose + 10% FBS, 0.00234 µM | 83.5 | 84.8 | 83.9
RPMI 5 mM glucose + 10% FBS, 0.00702 µM | 97.2 | 81.9 | 107
RPMI 5 mM glucose + 10% FBS, 0.0211 µM | 84.4 | 82.6 | 95.4
RPMI 5 mM glucose + 10% FBS, 0.0632 µM | 88.5 | 85.9 | 89.8
RPMI 5 mM glucose + 10% FBS, 0.19 µM | 83.3 | 84.4 | 95
RPMI 5 mM glucose + 10% FBS, 0.569 µM | 89.3 | 81.6 | 85.9
RPMI 5 mM glucose + 10% FBS, 1.71 µM | 86.7 | 79.6 | 88.5
RPMI 5 mM glucose + 10% FBS, 5.12 µM | 79.4 | 83.1 | 103
RPMI 5 mM glucose + 10% FBS, 15.4 µM | 84 | 79 | 100
RPMI 5 mM glucose + 10% FBS, 46.1 µM | 79 | 75.6 | 98.1
RPMI 5 mM glucose + 10% dialyzed FBS, 0.000781 µM | 77.2 | 85.9 | 51.5
RPMI 5 mM glucose + 10% dialyzed FBS, 0.00234 µM | 87.3 | 77.2 | 100
RPMI 5 mM glucose + 10% dialyzed FBS, 0.00702 µM | 85.4 | 83.2 | 96.6
RPMI 5 mM glucose + 10% dialyzed FBS, 0.0211 µM | 81.9 | 85.1 | 94.4
RPMI 5 mM glucose + 10% dialyzed FBS, 0.0632 µM | 91.1 | 88.2 | 73.1
RPMI 5 mM glucose + 10% dialyzed FBS, 0.19 µM | 89.1 | 85.8 | 101
RPMI 5 mM glucose + 10% dialyzed FBS, 0.569 µM | 73.1 | 74.9 | 90.4
RPMI 5 mM glucose + 10% dialyzed FBS, 1.71 µM | 77 | 76.4 | 84.1
RPMI 5 mM glucose + 10% dialyzed FBS, 5.12 µM | 95.7 | 80.7 | 94.2
RPMI 5 mM glucose + 10% dialyzed FBS, 15.4 µM | 74.2 | 78.1 | 100
RPMI 5 mM glucose + 10% dialyzed FBS, 46.1 µM | 76.2 | 79 | 88.7

AUC of viability dose-response curve
Details | HPLM + 10% dialyzed FBS | RPMI 5 mM glucose + 10% FBS | RPMI 5 mM glucose + 10% dialyzed FBS
[4] | 406 | 406 | 394
[5] | 407 | 390 | 388
